According to publication PMC6271277, “^68Ga-Labeled Cyclic NGR Peptide for MicroPET Imaging of CD13 Receptor Expression” (Molecules, 2014):

Columns and labels:
CD13 receptor = target: T1, CD13 receptor (Homo sapiens, UniProt P15144); test: Cell-based competitive binding assay against ^125I-NGR; settings: HT-1080 cells, competitor 10^-12 to 10^-5 M, gamma counter, n = 3; read-out: IC50, inhibition of ^125I-NGR binding to CD13 receptor
T1 construct: endogenous in cells; host or cells: HT-1080 human fibrosarcoma cells
T1 sequence (P15144 whole entry): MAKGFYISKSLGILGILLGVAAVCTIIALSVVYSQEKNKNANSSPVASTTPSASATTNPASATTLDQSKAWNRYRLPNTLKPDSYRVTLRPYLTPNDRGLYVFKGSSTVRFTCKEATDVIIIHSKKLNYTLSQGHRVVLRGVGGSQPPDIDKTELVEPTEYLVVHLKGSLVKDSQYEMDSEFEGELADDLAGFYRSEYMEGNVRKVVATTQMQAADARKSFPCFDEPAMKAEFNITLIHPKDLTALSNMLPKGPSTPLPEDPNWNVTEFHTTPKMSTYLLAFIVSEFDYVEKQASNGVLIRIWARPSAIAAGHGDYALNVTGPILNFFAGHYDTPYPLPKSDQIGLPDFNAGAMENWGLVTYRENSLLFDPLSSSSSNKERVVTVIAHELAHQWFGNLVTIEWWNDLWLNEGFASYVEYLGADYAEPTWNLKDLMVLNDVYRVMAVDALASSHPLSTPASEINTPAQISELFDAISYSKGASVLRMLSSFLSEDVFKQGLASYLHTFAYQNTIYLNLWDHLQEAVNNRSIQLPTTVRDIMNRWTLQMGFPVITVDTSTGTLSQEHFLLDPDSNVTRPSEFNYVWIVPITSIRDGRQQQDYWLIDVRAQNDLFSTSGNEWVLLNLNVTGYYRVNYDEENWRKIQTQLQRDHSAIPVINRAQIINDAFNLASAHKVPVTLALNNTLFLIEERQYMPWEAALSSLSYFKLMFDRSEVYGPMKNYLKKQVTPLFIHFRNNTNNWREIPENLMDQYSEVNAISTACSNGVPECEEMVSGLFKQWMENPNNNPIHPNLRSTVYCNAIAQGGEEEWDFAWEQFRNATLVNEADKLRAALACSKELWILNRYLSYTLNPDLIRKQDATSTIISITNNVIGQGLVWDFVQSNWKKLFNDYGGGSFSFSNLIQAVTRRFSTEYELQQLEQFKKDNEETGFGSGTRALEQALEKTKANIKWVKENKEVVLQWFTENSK
Experimental: In vitro CD13 binding affinity and specificity of NOTA-G3-NGR were tested by a cell-based competitive assay. The binding of ^125I-NGR to CD13 receptors in HT-1080 cells can be inhibited by NOTA-G3-NGR in a dose-dependent manner (Figure 1b).
In vitro CD13 receptor binding affinity and specificity of NOTA-G3-NGR in HT-1080 cells were assessed using a cell-based competitive assay. ^125I-labeled linear NGR peptide (sequence H-Tyr-Gly-Gly-Cys-Asn-Gly-Arg-Cys-OH) was prepared using the Iodogen method and used as the radioligand for CD13. The non-radiolabeled NOTA-G3-NGR peptide (concentrations at a range from 10^−12 to 10^−5 M) was co-incubated with ^125I-NGR in HT-1080 cells. After washing with ice-cold binding buffer three times, the HT-1080 cells were lysed in 200 µL of lysis buffer. The cell-associated radioactivity was then measured using a gamma counter (Beijing PET CO., Ltd., Beijing, China). The IC50 (50% inhibitory concentration) value was obtained by fitting the data using nonlinear regression with GraphPad Prism (GraphPad Software, San Diego, CA, USA). Experiments were performed in triplicate.

physchem = format: physicochemical; settings: pH 7.4
Experimental: The octanol–water partition coefficient value was determined by measuring the distribution (logD) of radioactivity in octanol and PBS. Approximately 5 KBq of ^68Ga- NOTA-G3-NGR (2 μL) was added to a vial containing 0.5 mL of octanol and 0.5 mL of PBS (pH = 7.4). The mixture was then vortexed vigorously for 15 min. Subsequently, the mixture was centrifuged at 12,500 rpm for 5 min to ensure the complete separation of layers. Aliquots of the aqueous and octanol layers were collected, measured in a gamma counter (Beijing PET CO., Ltd., Beijing, China). The octanol–water partition coefficient value was then calculated (n = 5).

Row | SMILES | IC50 (CD13 receptor) [nM] | logD (physchem)
1 | N=C(N)NCCC[C@@H]1NC(=O)CNC(=O)[C@H](CC(N)=O)NC(=O)[C@@H](NC(=O)CNC(=O)CNC(=O)CNC(=S)Nc2ccc(CC3CN(CC(=O)O)CCN(CC(=O)O)CCN3CC(=O)O)cc2)CSSC[C@@H](C(=O)O)NC1=O (some centres unmarked) [NOTA-G3-NGR] | 74.7 ± 3.91 | 
2 | N=C(N)NCCC[C@@H]1NC(=O)CNC(=O)[C@H](CC(N)=O)NC(=O)[C@@H](NC(=O)CNC(=O)CNC(=O)CNC(=S)Nc2ccc(CC3CN(CC(=O)O)CCN(CC(=O)O)CCN3CC(=O)O)cc2)CSSC[C@@H](C(=O)O)NC1=O (some centres unmarked) [^68Ga-NOTA-G3-NGR, metal not drawn] |  | -2.25 ± 0.17
